We go through 14 molecules from patent publication US10758530B2, “Carboxamide derivatives useful as rsk inhibitors” (PHOENIX MOLECULAR DESIGNS, priority 2016, dated 2020).

“Also recorded” adds a separate entry of the source. Where a name gives a salt, the structure may show the parent alone.

Data set [1] can be described thus: Solubility assessment (20 mg/ml solution, precipitate formation, pH strips). It counts as physicochemical. Particulars: for Solubility, 20 mg/ml solution: dissolved in DMSO (100 mM); for pH of 20 mg/ml solution: dissolved in DMSO. How it is done:
Solubility is an important property for therapeutic drug candidates. Poor solubility can lead to low bioavailability resulting in suboptimal drug delivery. It can also prevent the evaluation of test agents in animals because the concentration(s) needed to achieve the desired effect cannot be achieved to poor solubility. For solubility assessments, small molecules targeting RSK were compared. For these assessments, 100 mM solutions of the compounds dissolved in DMSO were diluted in DMEM growth media (Life Technologies) supplemented with fetal bovine serum (FBS, Life Technologies) and 100 units/ml penicillin and 100 units/mi streptomycin (Life Technologies) to make 20 mg/ml solutions. Once diluted, the solutions were vortexed and examined for the formation of precipitates. […] For Compound 26, a 100 mM solution of the compound dissolved in DMSO was diluted in phosphate buffered saline (Life Technologies) to make a 20 mg/ml solution. The stock of […] was chosen because this is the upper end of what would be required to dose mice for a range of studies including MTD, PK, PD and efficacy. The pH of this solution was determined to be 2, as previously described. […] At high concentrations some RSK inhibitors were highly soluble while others were not. Compound 0 is (R)—N-(1-benzyl-1H-pyrazol-4-yl)-9-methyl-6-oxo-6,7,8,9-tetrahydropyrido[3′,2′:4,5]pyrrolo[1,2-a]pyrazine-2-carboxamide. Compound 0 was not soluble, whereas Compounds 18, 20, 21, 25 and 26 were soluble under the same conditions (Table 5).

The subject of data set [2] is SUM149-PTXR. In words: Monolayer growth inhibition, Alamar blue assay. It counts as cell-based. To be noted: Homo sapiens, 120 h; TNBC, BRCA mutant; 5 days, single dose. On the technique in general: Alamar Blue is a resazurin reagent that responds to reducing activity.
Method: (§2) 1×10^3 cells per well were seeded for a final volume of 200 μl per well and plates were incubated for 5 days at 37° C. in a humidified incubator with 5% CO2. Following the incubation period, cell survival was quantified by Alamar blue assay (Life Technologies). Briefly, media from each well was replaced with 100 μl of phosphate buffer saline (PBS, Life Technologies) and cells were incubated with 5% Alamar blue, which incorporates a propriety redox indicator that changes colour in response to metabolic activity, for up to 2 hours. During this period of incubation, the absorbance at 570 nm and 600 nm was measured at various time points, depending on the cell line or sample. Percent survival was calculated by comparing the absorbance ratio of the test well to the control well multiplied by 100%, as indicated in the following formula:
Data set [3] concerns SUM149-PTXR. Put plainly: Monolayer growth inhibition, crystal violet assay. It counts as cell-based. Particulars: Homo sapiens, 120 h; TNBC, BRCA mutant; 5 days, single dose.
Data set [4] deals with All cell lines of Tables 6A/6B. Put plainly: Monolayer growth inhibition, Alamar blue assay, range over all cell lines. It counts as cell-based. To be noted: 120 h, read-out: IC50 Values - Alamar Blue (5 Days), Range, All.
Method: as §2
In data set [5] the test system is All cell lines of Tables 7A/7B. In words: Monolayer growth inhibition, crystal violet assay, range over all cell lines. It counts as cell-based. Particulars: 120 h, read-out: IC50 Values - Crystal Violet (5 Days), Range, All.
The next data set deals with HLA-DRA mRNA. In words: HLA-DRA mRNA expression in MDA-MB-231 and JIMT-1 cells. It counts as cell-based, Human. To be noted: Compound 16 2 or 4 uM; Compound 18 1, 2, or 4 uM. From the text:
(§1) A key feature of cancer is low immunogenicity. This can occur by several mechanisms that allow the cells to escape immune recognition. […] HLA-DRA is a member of MHC-II genes and CIITA is the master regulator of MHC II transcription. Thus it was surprising that CIITA, which would be expected to regulate MHC II gene expression, was not altered by RSK inhibition. […] HLA-DRA is important for immune recognition while PD-L1 is involved in immune checkpoints.

Data set [6] concerns phosphorylated Y-box binding protein-1 (YB-1) at serine 102 (P-YB-1 S102). In words: Immunoblotting of P-YB-1 (cell signalling inhibition) in MDA-MB-231 cells. (Immunoblotting shows a protein as a band on a membrane.)
Method: Generation of cellular extracts: Following desired experimental conditions, breast cancer cell lines grown and treated in 6 well plates or 100 mm culture dishes (Grenier Bio-One) were placed on ice and the supernatant from each well was removed and the cells were washed in cold PBS. Following removal of PBS, cells were exposed to radioimmunoprecipitation assay (RIPA) buffer (50 mM Tris-HCl (pH 8), 150 mM NaCl, 1% NP-40, 0.5% sodium deoxycholate, 0.1% SDS; Fisher Scientific) supplemented with 1% phosphatase inhibitor (Fisher Scientific) and 1% protease inhibitor (Fisher Scientific) for 10 minutes. Samples were transferred to eppendorf tubes, vortexed and then centrifuged at 14 000 rpm for 10 minutes. Supernatants were collected as whole cell lysates. For mouse tumour tissues, each sample was place in a 35 mm culture dish with complete RIPA lysis buffer. The samples were diced in the buffer on ice with a sterile scalpel (VWR) and the buffer and tissue were transferred to an eppendorf tube. The samples were left on ice for 10 minutes with periodic vortexing every 2 to 3 minutes. The samples were then transferred to a Qiashredder (Qiagen) and centrifuged at 14 000 rpm for 2 minutes. The flow through was transferred to a new eppendorf tube and the samples were centrifuged again at 14 000 rpm for 5 minutes. Supernatants were collected as whole cell lysates.
Immunoblotting: To begin, the protein content of the lysates was measured using the Bicinchoninic Acid (BCA) Protein Assay Kit (Pierce), which included a protein standard curve generated with bovine serum albumin. […] For certain immunoblots, bands of proteins of interest were scanned and band intensity ratios were determined by densitometric analysis (ImageJ). […] To assess whether cells are actively undergoing cell death, the activity of poly ADP ribose polymerase (PARP) (1:1000 CST) was also measured using the immunoblotting method.
In data set [7] the test system is CD274. In words: CD274 (PD-L1 gene) expression in MDA-MB-231 cells. It counts as cell-based, Human. To be noted: Compound 16 2 or 4 uM; Compound 18 1, 2, or 4 uM.
Source text: as §1

For a further data set, the system named is CIITA. Put plainly: CIITA mRNA expression in MDA-MB-231 and JIMT-1 cells. It counts as cell-based, Human. Particulars: Compound 16 2 or 4 uM; Compound 18 1, 2, or 4 uM.
Source text: as §1

The test system of data set [8] is CD274. In words: CD274 (PD-L1 gene) expression in JIMT-1 cells. It counts as cell-based, Human. To be noted: 1-20 uM.
Source text: as §1

In the next data set the test system is P-YB-1. In words: Pharmacodynamics: P-YB-1 signalling in MDA-MB-231 xenograft tumors (immunoblotting). Particulars: n=3 treated 3 days, n=9 treated 21 days.
Where [9] appears, read: diluted in DMEM, hydrochloride salt.
[10] abbreviates: diluted in PBS, hydrochloride salt.

`C[C@@H]1CNC(=O)c2cc3ccc(C(=O)Nc4cnn(Cc5ccccc5)c4)nc3n21` [Compound 0, (R)—N-(1-benzyl-1H-pyrazol-4-yl)-9-methyl-6-oxo-6,7,8,9-tetrahydropyrido[3′,2′:4,5]pyrrolo[1,2-a]pyrazine-2-carboxamide, reference compound]: the “Solubility for systemic delivery in mice (qualitative)” value in [1] is given as “poor or nonexistent solubility”. Also, the “Solubility, 20 mg/ml solution” value in [1] (diluted in DMEM) is recorded as “not soluble; also recorded: Precipitate”.
A word on the IC50: it is the concentration that gives 50% inhibition. As to `C[C@@H]1CNC(=O)c2cc3ccc(NC(=O)c4cnn(Cc5ccccc5)c4)cc3n21` [Compound 11, (R)-1-benzyl-N-(4-methyl-1-oxo-1,2,3,4-tetrahydropyrazino[1,2-a]indol-7-yl)-1H-pyrazole-4-carboxamide], the IC50 with SUM149-PTXR [2] was 36.4 ± 11.9 µM; with SUM149-PTXR [3], 44.6 ± 3.9 µM.
Take `C[C@@H]1CNC(=O)c2cc3ccc(NC(=O)c4cnn(Cc5ccccc5)c4)nc3n21` [Compound 15, (R)-1-benzyl-N-(9-methyl-6-oxo-6,7,8,9-tetrahydropyrido[3′,2′:4,5]pyrrolo[1,2-a]pyrazin-2-yl)-1H-pyrazole-4-carboxamide]: the IC50 in data set [4] was 3.6 to 21.3 µM; with SUM149-PTXR [2], 9.2 ± 3 µM; with SUM149-PTXR [3] it was 8.8 ± 2.2 µM; in data set [5] it was 5.9 to 21 µM.
For `C[C@@H]1CNC(=O)c2cc3ccc(C(=O)Nc4cnn(Cc5cccc(N)c5)c4)nc3n21` [Compound 16, (R)—N-(1-(3-aminobenzyl)-1H-pyrazol-4-yl)-9-methyl-6-oxo-6,7,8,9-tetrahydropyrido[3′,2′:4,5]pyrrolo[1,2-a]pyrazine-2-carboxamide], in the data set with HLA-DRA mRNA, the “HLA-DRA mRNA levels” value is recorded as “elevated levels of HLA-DRA mRNA”. The “Loss of P-YB-1” value in data set [6] (0.01-1 uM, 96 hrs) was “dose dependent loss of P-YB-1”. Moreover, in the data set with CD274 [7], the “Levels of CD274 in MDA-MB-231 cells” value was “reduced levels of CD274”. Moreover, the IC50 in [4] was 0.9 to 17.4 µM; with SUM149-PTXR [2] it was 2.5 ± 0.4 µM; in the data set on SUM149-PTXR [3], 3.5 ± 1.2 µM; in [5], 1.2 to 13.3 µM. Moreover, the “mRNA expression of CIITA” value with CIITA was “little effect”.
In the case of `C[C@@H]1CNC(=O)c2cc3ccc(C(=O)Nc4cnn(Cc5ccccc5N)c4)nc3n21` [Compound 17, (R)—N-(1-(2-aminobenzyl)-1H-pyrazol-4-yl)-9-methyl-6-oxo-6,7,8,9-tetrahydropyrido[3′,2′:4,5]pyrrolo[1,2-a]pyrazine-2-carboxamide], the IC50 in data set [4] is 1.2 to 12.6 µM; in the data set with SUM149-PTXR [2], 4.2 ± 1.5 µM; in the data set on SUM149-PTXR [3], 5.2 ± 0.6 µM; in data set [5] it was 1 to 8.9 µM.
In the case of `C[C@@H]1CNC(=O)c2cc3ccc(C(=O)Nc4cnn(Cc5ccc(N)cc5)c4)nc3n21` [Compound 18, (R)—N-(1-(4-aminobenzyl)-1H-pyrazol-4-yl)-9-methyl-6-oxo-6,7,8,9-tetrahydropyrido[3′,2′:4,5]pyrrolo[1,2-a]pyrazine-2-carboxamide], in the data set on HLA-DRA mRNA, the “HLA-DRA mRNA levels” value is recorded as “elevated levels of HLA-DRA mRNA”. For the same molecule, in [6] (0.01-1 uM, 96 hrs), the “Loss of P-YB-1” value is on record as “dose dependent loss of P-YB-1”. Also, the “Levels of CD274 in MDA-MB-231 cells” value in the data set on CD274 [7] was “reduced levels of CD274”. Further, in [1] (diluted in DMEM), the “Solubility, 20 mg/ml solution” value is “Soluble” and the “pH of 20 mg/ml solution” value amounted to 9. Also, the “mRNA expression of CIITA” value with CIITA is given as “little effect”. Moreover, in the data set with CD274 [8], the “CD274 in JIMT-1 cells” value is given as “inhibited CD274”.
With `C[C@@H]1CNC(=O)c2cc3ccc(NC(=O)c4cnn(Cc5cccc(N)c5)c4)nc3n21` [Compound 19, (R)-1-(3-aminobenzyl)-N-(9-methyl-6-oxo-6,7,8,9-tetrahydropyrido[3′,2′:4,5]pyrrolo[1,2-a]pyrazin-2-yl)-1H-pyrazole-4-carboxamide], the IC50 in data set [4] was 10.5 to 37.3 µM; with SUM149-PTXR [2], 14.1 ± 4.3 µM; in the data set on SUM149-PTXR [3], 13 ± 1.3 µM; in data set [5] it was 7.4 to 34 µM.
Consider `C[C@@H]1CNC(=O)c2cc3ccc(C(=O)Nc4cnn(CC5CCN(C)CC5)c4)nc3n21` [Compound 20, (R)-9-methyl-N-(1-((1-methylpiperidin-4-yl)methyl)-1H-pyrazol-4-yl)-6-oxo-6,7,8,9-tetrahydropyrido[3′,2′:4,5]pyrrolo[1,2-a]pyrazine-2-carboxamide], for which, in data set [1] (diluted in DMEM), the “Solubility, 20 mg/ml solution” value is listed as “Soluble” and the “pH of 20 mg/ml solution” value turned out to be 8.
As to `C[C@@H]1CNC(=O)c2cc3ccc(C(=O)Nc4ccccc4C(N)=O)nc3n21` [Compound 21, (R)—N-(2-carbamoylphenyl)-9-methyl-6-oxo-6,7,8,9-tetrahydropyrido[3′,2′:4,5]pyrrolo[1,2-a]pyrazine-2-carboxamide], the IC50 in [4] is 1.2 to 14.7 µM; in the data set with SUM149-PTXR [2] it was 1.5 ± 0.8 µM; in the data set with SUM149-PTXR [3] it was 2 ± 0.2 µM; in data set [5] it was 1.1 to 11.3 µM. For the same molecule, the “Solubility, 20 mg/ml solution” value in data set [1] (diluted in DMEM) was “Soluble”. For the same molecule, in data set [1] (diluted in DMEM), the “pH of 20 mg/ml solution” value is reported as 9.
On to `C[C@@H]1CNC(=O)c2cc3ccc(C(=O)Nc4cnn(Cc5ccc(C(F)(F)F)cc5)c4)nc3n21` [Compound 22, (R)-9-methyl-6-oxo-N-(1-(4-(trifluoromethyl)benzyl)-1H-pyrazol-4-yl)-6,7,8,9-tetrahydropyrido[3′,2′:4,5]pyrrolo[1,2-a]pyrazine-2-carboxamide], for which the IC50 is 4.5 to 17.1 µM in data set [4], 7.8 ± 4.6 µM in the data set with SUM149-PTXR [2], 8 ± 1.3 µM in the data set with SUM149-PTXR [3] and 2.6 to 14.2 µM in data set [5]. In [1] (diluted in DMEM), the “Solubility, 20 mg/ml solution” value is reported as “Precipitate”.
In the same order, the values of `C[C@@H]1CNC(=O)c2cc3ccc(C(=O)Nc4cnn(Cc5ccc(F)cc5F)c4)nc3n21` [Compound 23, (R)—N-(1-(2,4-difluorobenzyl)-1H-pyrazol-4-yl)-9-methyl-6-oxo-6,7,8,9-tetrahydropyrido[3′,2′:4,5]pyrrolo[1,2-a]pyrazine-2-carboxamide] are 1.1 to 19.8 µM, 5.1 ± 4 µM, 5 ± 2.4 µM, 1.1 to 15 µM and “Precipitate”.
On to `C[C@@H]1CNC(=O)c2c(Cl)c3ccc(C(=O)Nc4cnn(Cc5ccccc5)c4)nc3n21` [Compound 24, (R)—N-(1-benzyl-1H-pyrazol-4-yl)-5-chloro-9-methyl-6-oxo-6,7,8,9-tetrahydropyrido[3′,2′:4,5]pyrrolo[1,2-a]pyrazine-2-carboxamide], for which the IC50 is 0.5 to 12.3 µM in data set [4], 3.4 ± 2.1 µM in the data set on SUM149-PTXR [2], 4.5 ± 1.4 µM in the data set with SUM149-PTXR [3] and 0.3 to 9.1 µM in data set [5]. Further, the “Solubility, 20 mg/ml solution” value in [1] (diluted in DMEM) was “Precipitate”.
On to `C[C@@H]1CNC(=O)c2cc3ccc(C(=O)Nc4cnn(Cc5ccc(N)cc5)c4)nc3n21` [Compound 25, (R)—N-(1-(4-aminobenzyl)-1H-pyrazol-4-yl)-9-methyl-6-oxo-6,7,8,9-tetrahydropyrido[3′,2′:4,5]pyrrolo[1,2-a]pyrazine-2-carboxamide hydrochloride salt], for which, in data set [6] (0.01, 0.1, 1, or 10 uM, 24 hrs), the “Loss of P-YB-1” value was “dose dependent loss of P-YB-1”. In addition, in the data set with SUM149-PTXR [2], the IC50 came out at 5.2 ± 4.2 µM. Moreover, the “Solubility for systemic delivery in mice (qualitative)” value in [1] is “superior solubility”. In [1] (setting [9]), the “Solubility, 20 mg/ml solution” value is “Soluble” and the “pH of 20 mg/ml solution” value was 2. Further, in the data set on P-YB-1, the “Tumors with reduced P-YB-1 signaling (3 and 21 days combined)” value is recorded as 12/12.
Consider `C[C@@H]1CNC(=O)c2cc3ccc(C(=O)Nc4cnn(Cc5ccc(CN)cc5)c4)nc3n21` [Compound 26, (R)—N-(1-(4-(aminomethyl)benzyl)-1H-pyrazol-4-yl)-9-methyl-6-oxo-6,7,8,9-tetrahydropyrido[3′,2′:4,5]pyrrolo[1,2-a]pyrazine-2-carboxamide hydrochloride salt], for which the IC50 in [4] was 1.9 to 15.5 µM; with SUM149-PTXR [2], 8.8 ± 2.5 µM; with SUM149-PTXR [3], 6.5 ± 2.1 µM; in data set [5] it was 1.5 to 12.3 µM. In addition, the “Solubility, 20 mg/ml solution” value in [1] (setting [10]) is listed as “Soluble”. The “pH of 20 mg/ml solution” value in [1] (setting [10]) is 2-9.
